Values after ≈ are worked out from the molar mass of the structure shown.

Assay type in all cases: cell-based, Mycobacterium tuberculosis
Assay [1] deals with PP1S-resistant M. tuberculosis.
Assay [2] relates to PP2S-resistant M. tuberculosis.
The subject of assay [3] is M. tuberculosis H37Rv. Particulars: at 200 μg/ml and above.

For `CO[C@H]1/C=C/O[C@@]2(C)Oc3c(C)c(O)c4c(O)c(c(/C=N/N5CCN(C)CC5)c(O)c4c3C2=O)NC(=O)/C(C)=C\C=C\[C@H](C)[C@H](O)[C@@H](C)[C@@H](O)[C@@H](C)[C@H](OC(C)=O)[C@@H]1C` [RIF, rifampicin, reference compound], the MIC (usually the lowest concentration that inhibits growth of the organism) was 0.1 µg/mL (≈ 0.122 µM) in assay [1] and 0.2 µg/mL (≈ 0.243 µM) in assay [2].
In the same order, the values of `NC(=O)c1cnccn1` [PZA, pyrazinamide] are over 100 µg/mL and over 100 µg/mL.
The corresponding values for `COC(=O)[C@@H]1CCC(=O)N1Cc1cc2ccc(OC)cc2c2cc(OC)c(OC)cc12` [PP1S, (S)-N-[(2,3,6-Trimethoxy-10-phenanthryl)methyl]-pyroglutamic acid methyl ester] are over 100 µg/mL and over 100 µg/mL.
Consider `COC(=O)[C@@H]1CCC(=O)N1Cc1cc2ccc(OCc3ccccc3)cc2c2cc(OC)c(OC)cc12` [PP3S, Methyl (S)-1-{[3-(Benzyloxy)-6,7-dimethoxy-9-phenanthryl]methyl}-5-oxopyrrolidine-2-carboxylate], for which the MIC in assay [1] and in assay [2] was over 100 µg/mL throughout.
`[H]/N=C(/N)N[C@H]1[C@H](O)[C@@H](O)[C@H](O[C@@H]2O[C@@H](C)[C@](O)(C=O)[C@H]2O[C@@H]2O[C@@H](CO)[C@H](O)[C@@H](O)[C@@H]2NC)[C@@H](N/C(N)=N\[H])[C@@H]1O` [STR, streptomycin]: the figures for the minimal inhibitory concentration (MIC) in assay [1] and in assay [2] were 0.2 µg/mL (≈ 0.344 µM) and 0.4 µg/mL (≈ 0.688 µM), respectively.
Regarding `NNC(=O)c1ccncc1` [INH, isoniazid, reference compound], the figures for the MIC in assay [1] and in assay [2] were 0.2 µg/mL (≈ 1.46 µM) and 0.4 µg/mL (≈ 2.92 µM), respectively.
In the case of `CCCCOc1ccc2cc(CN3C(=O)CC[C@H]3C(=O)OC)c3cc(OC)c(OC)cc3c2c1` [PP2S, Methyl (S)-1-((3-butoxy-6,7-dimethoxyphenanthren-9-yl)methyl)-5-oxopyrrolidine-2-carboxylate], the minimal inhibitory concentration (MIC) in assay [1] and in assay [2] was over 100 µg/mL each time. For the same compound, the “occurrence of resistant strains” value in assay [3] is “did not occur directly”.
On to `CC[C@@H](CO)NCCN[C@@H](CC)CO` [EMB, ethambutol], for which the MIC in assay [1] and in assay [2] was 1.6 µg/mL (≈ 7.83 µM) throughout.

For the origin of these results see PMC9154192 (PLoS Biology, 2022).
